We go through 3 molecules from ChEMBL document CHEMBL1201862, “PubChem BioAssay data set” (2004).

Test systems include SF-539; TK-10; NCI-H23; CCRF-CEM; HCT-116; KM12; HOP-62; T47D; MOLT-4; DU-145; SK-OV-3; HCT-15; UACC-257; CAKI-1; K562; M14; ACHN; HT-29; LOX IMVI; OVCAR-5.
Common to all, as to test: NCI anticancer screen, dose series, 48 h

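Dose response: 5 concentrations. Exposure: 48 h. Format: 96-well plates. Endpoint: linear interpolation; highest concentration if not reached. GI50: concentration for 50% inhibition of growth.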 Calls of active or inactive are those of the source. Cut-off read from the data, not from the text of the source: active = GI50 up to about 1.1 µM and inactive = higher.

`CCOC(=O)N1c2ccccc2C(C)=CC(C)C1C` (stereo not given): the GI50 was 20.4 µM (inactive) with SF-539; 4.55 µM (inactive) in the experiment on TK-10; 22.8 µM (inactive) in the experiment on NCI-H23; 21.9 µM (inactive) in the experiment on CCRF-CEM; 6.73 µM (inactive) in the experiment on HCT-116; 9.82 µM (inactive) in the experiment with KM12. Moreover, the GI50 was 37.6 µM (inactive) in the experiment with HOP-62; 52.1 µM (inactive) in the experiment with T47D; 39.4 µM (inactive) in the experiment with MOLT-4; 38.3 µM (inactive) in the experiment with DU-145; 22.4 µM (inactive) in the experiment with SK-OV-3; 5.36 µM in the experiment with HCT-15. For the same molecule, the GI50 was 12.7 µM (inactive) in the experiment with UACC-257; 16.2 µM (inactive) in the experiment with CAKI-1; 18.9 µM (inactive) in the experiment with K562; 13.6 µM (inactive) in the experiment on M14; 49.7 µM (inactive) with ACHN; 10.7 µM (inactive) in the experiment with HT-29. Moreover, the GI50 is 7.53 µM (inactive) with LOX IMVI and 40.1 µM (inactive) with OVCAR-5.
As to `CCCCNC(=S)Nc1nc(C(=O)NNC(=S)NC2CCCCC2)cs1`, the GI50 was > 100 µM (inactive) in the experiment with SF-539; > 100 µM (inactive) with TK-10; > 100 µM (inactive) in the experiment with NCI-H23; 67.6 µM (inactive) in the experiment with CCRF-CEM; > 100 µM (inactive) in the experiment on HCT-116; > 100 µM (inactive) in the experiment with KM12. For the same molecule, the GI50 in the experiment on HOP-62 is > 100 µM (inactive); with T47D, > 100 µM (inactive); with MOLT-4, > 10 µM (inactive); with DU-145 it was > 100 µM (inactive); with SK-OV-3 it was 49 µM (inactive); in the experiment on HCT-15, 32.7 µM. For the same molecule, the GI50 in the experiment with UACC-257 was > 100 µM (inactive); with CAKI-1, > 100 µM (inactive); with K562, 75.5 µM (inactive); with M14, > 100 µM (inactive); with ACHN, 62.7 µM (inactive); in the experiment with HT-29, > 100 µM (inactive). Also, the GI50 with LOX IMVI and in the experiment on OVCAR-5 was > 100 µM (inactive) each time.
`COC(=O)C(=O)c1c2ccccc2n2ccc3c4ccccc4[nH]c3c12`: the GI50 with SF-539 was 3.27 µM (inactive); in the experiment with TK-10 it was > 10 µM (inactive); in the experiment on NCI-H23, > 10 µM (inactive); in the experiment with CCRF-CEM, > 10 µM (inactive); in the experiment with HCT-116, > 10 µM (inactive); in the experiment with KM12, > 10 µM (inactive). The GI50 with HOP-62 is > 10 µM (inactive); with T47D, > 10 µM (inactive); in the experiment on MOLT-4 it was > 10 µM (inactive); with DU-145 it was > 10 µM (inactive); with SK-OV-3, > 10 µM (inactive); with HCT-15, more than 10 µM. Besides, the GI50 with UACC-257, in the experiment on CAKI-1, in the experiment with K562, in the experiment on M14, in the experiment on ACHN and in the experiment on HT-29 was > 10 µM (inactive) in each case. The GI50 in the experiment on LOX IMVI and in the experiment with OVCAR-5 was > 10 µM (inactive) each time.
